Data on five compounds can be found in US11986471B2, “Compounds and methods of use” (Tango Therapeutics, Inc., priority 2018, dated 2024).

Some results are limits rather than exact numbers.

One test relates to HAP1 MTAP-deleted. Description: SDMA in-cell western assay, HAP1 MTAP-deleted cell line. The format is cell-based. Particulars: for IC50: Homo sapiens, HAP1 MTAP-deleted cell line; for MTAP Intact/Deleted Ratio: IC50 ratio HAP1 MTAP-intact / HAP1 MTAP-deleted. In short, it runs like this:
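Readout is cellular SDMA signal by in-cell western, with IC50 values derived from it. The cells are MTAP-null HAP1, matched to an isogenic MTAP-intact HAP1 line.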

For test [1], the target named is T1, PRMT5 (Homo sapiens, UniProt O14744).
T1 construct: purchased Viva (custom protein)
Description: PRMT5 IC50 assay in the presence of SAM as cofactor. It counts as biochemical. Put shortly: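 MTA-dependent versus SAM-dependent inhibition of human PRMT5 was assessed by IC50; conversion factors of 13.5 and 1.5 gave the corresponding Ki.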

A further test relates to HAP1 MTAP-intact. As to the kind of experiment: SDMA in-cell western assay, HAP1 MTAP-intact cell line. Particulars: Homo sapiens. The format is cell-based. Put shortly: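 IC50 values come from SDMA in-cell western staining of HAP1 cells. The MTAP-intact line carries endogenous MTAP, while its MTAP-deleted counterpart lacks MTAP entirely. A selectivity ratio of at least 3 fold marks a compound as MTAP-selective.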

Test [2] has as its target T1, PRMT5. As to the kind of experiment: PRMT5 IC50 assay in the presence of MTA as cofactor. The format is biochemical. Particulars: for IC50: PRMT5, MTA as cofactor. In short, it runs like this:
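IC50 values were measured against human PRMT5 with SAM, with MTA, or with no cofactor. Ki was derived from IC50 as Ki=IC50/1.5 with SAM and Ki=IC50/13.5 with MTA, and the Ki(SAM)/Ki(MTA) ratio was then taken.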

The target in test [3] is T1, PRMT5. Description: PRMT5 IC50 assay with no cofactor. The format is biochemical. In short, it runs like this: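 Values reflect IC50 (μM) on human PRMT5 under three cofactor states. Selectivity is derived as the quotient of SAM-state Ki over MTA-state Ki, with each Ki obtained from its IC50.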
Where [4] appears, read: ratio between the Ki in the presence of SAM and the Ki in the presence of MTA.
Setting [5] is: ratio between Ki in the presence of SAM and Ki in the presence of MTA.

T1 sequence (O14744 whole entry): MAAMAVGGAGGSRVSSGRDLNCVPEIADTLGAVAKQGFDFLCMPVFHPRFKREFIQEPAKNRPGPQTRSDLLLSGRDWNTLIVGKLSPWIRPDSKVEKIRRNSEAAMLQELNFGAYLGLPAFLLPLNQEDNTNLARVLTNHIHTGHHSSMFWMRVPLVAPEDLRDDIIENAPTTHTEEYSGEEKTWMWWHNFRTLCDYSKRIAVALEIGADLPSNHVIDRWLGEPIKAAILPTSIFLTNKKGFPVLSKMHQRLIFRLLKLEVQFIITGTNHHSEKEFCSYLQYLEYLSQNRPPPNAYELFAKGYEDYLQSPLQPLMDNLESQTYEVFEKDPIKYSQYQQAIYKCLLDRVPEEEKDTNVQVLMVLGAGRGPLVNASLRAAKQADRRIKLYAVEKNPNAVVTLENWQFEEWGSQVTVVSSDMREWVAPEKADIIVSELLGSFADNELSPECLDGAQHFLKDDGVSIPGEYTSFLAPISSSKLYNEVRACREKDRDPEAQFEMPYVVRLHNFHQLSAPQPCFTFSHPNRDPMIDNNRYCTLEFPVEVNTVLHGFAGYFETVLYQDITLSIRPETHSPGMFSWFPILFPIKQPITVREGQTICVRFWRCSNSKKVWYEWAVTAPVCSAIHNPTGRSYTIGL
T1 sequence (Q9BQA1 whole entry partner): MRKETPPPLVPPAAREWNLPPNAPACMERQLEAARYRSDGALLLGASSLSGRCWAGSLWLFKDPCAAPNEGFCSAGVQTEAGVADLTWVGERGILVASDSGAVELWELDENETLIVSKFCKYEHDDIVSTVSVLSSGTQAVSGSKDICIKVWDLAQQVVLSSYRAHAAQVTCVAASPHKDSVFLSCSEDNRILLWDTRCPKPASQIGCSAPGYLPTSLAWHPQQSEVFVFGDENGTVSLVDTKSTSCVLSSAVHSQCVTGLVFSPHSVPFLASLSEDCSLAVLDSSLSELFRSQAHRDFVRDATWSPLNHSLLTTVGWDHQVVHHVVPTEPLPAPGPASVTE

For the compound `Cc1ncoc1COc1ccc2c(c1)CCN(C[C@@H](O)CNC(=O)c1ccnc(NC3CC4(CCC4)C3)c1)C2` [Compound 609, (S)—N-(2-hydroxy-3-(6-((4-methyloxazol-5-yl)methoxy)-3,4-dihydroisoquinolin-2(1H)-yl)propyl)-2-(spiro[3.3]heptan-2-ylamino)isonicotinamide], the IC50 (usually the concentration at which inhibition is half-maximal) is under 1000 nM in the test on HAP1 MTAP-deleted; 500 to 5000 nM at PRMT5 [1]; 1000 to 10000 nM in the test with HAP1 MTAP-intact; under 50 nM at PRMT5 [2]; 500 to 5000 nM against PRMT5 [3]. Also, in the test with HAP1 MTAP-deleted, the “MTAP Intact/Deleted Ratio” value is “B* (an IC50 ratio greater than or equal to 3 fold but lower than 10 fold between the IC50 in the HAP1 MTAP-intact cell line and the HAP1 MTAP-deleted cell line)”. Also, the “SAM/MTA Ratio” value at PRMT5 [2] (setting [4]) was “A (a Ki ratio greater than or equal to 10 fold between the Ki in the presence of SAM and the Ki in the presence of MTA)”.
Consider `CC(=O)N1CCC(Nc2cc(C(=O)NC[C@H](O)CN3CCc4cc(OCc5ocnc5C)ccc4C3)cc(N3CCN(C(C)=O)CC3)n2)CC1` [Compound 594, 2-(4-acetylpiperazin-1-yl)-6-[(1-acetylpiperidin-4-yl)amino]-N-[(2S)-2-hydroxy-3-{6-[(4-methyl-1,3-oxazol-5-yl)methoxy]-1,2,3,4-tetrahydroisoquinolin-2-yl}propyl]pyridine-4-carboxamide], for which the IC50 in the test with HAP1 MTAP-deleted is 1000 to 10000 nM; at PRMT5 [1], 50 to 500 nM; with HAP1 MTAP-intact, at least 10000 nM; on PRMT5 [2], 50 to 500 nM; against PRMT5 [3] it was 500 to 5000 nM. The “MTAP Intact/Deleted Ratio” value with HAP1 MTAP-deleted was “C* (an IC50 ratio of less than 3 fold between the IC50 in the HAP1 MTAP-intact cell line and the HAP1 MTAP-deleted cell line)”. The “SAM/MTA Ratio” value at PRMT5 [2] (setting [4]) is “A (a Ki ratio greater than or equal to 10 fold between the Ki in the presence of SAM and the Ki in the presence of MTA)”.
For the compound `CCCC(=O)N1CCC(Nc2cc(C(=O)NC[C@H](O)CN3CCc4c(ccc(OCc5cnco5)c4C)C3)ncn2)CC1` [Compound 560, 6-[(1-butanoylpiperidin-4-yl)amino]-N-[(2S)-2-hydroxy-3-{5-methyl-6-[(1,3-oxazol-5-yl)methoxy]-1,2,3,4-tetrahydroisoquinolin-2-yl}propyl]pyrimidine-4-carboxamide], the IC50 in the test on HAP1 MTAP-deleted was 1000 to 10000 nM; at PRMT5 [1] it was 50 to 500 nM; in the test on HAP1 MTAP-intact it was at least 10000 nM; at PRMT5 [2], 50 to 500 nM; at PRMT5 [3] it was 500 to 5000 nM. For the same compound, in the test on HAP1 MTAP-deleted, the “MTAP Intact/Deleted Ratio” value was “B* (an IC50 ratio greater than or equal to 3 fold but lower than 10 fold between the IC50 in the HAP1 MTAP-intact cell line and the HAP1 MTAP-deleted cell line)”. For the same compound, the “SAM/MTA Ratio” value on PRMT5 [2] (setting [4]) was “A (a Ki ratio greater than or equal to 10 fold between the Ki in the presence of SAM and the Ki in the presence of MTA)”.
In the case of `CC(=O)N1CCC(Nc2cc(C(=O)NC[C@H](O)CN3CCc4cc(OCc5ccnn5C)ccc4C3)ncn2)CC1` [Compound 140, 6-[(1-acetyl-4-piperidyl)amino]-N-[(2S)-2-hydroxy-3-[6-[(2-methylpyrazol-3-yl)methoxy]-3N-dihydro-1H-isoquinolin-2-yl]propyl]pyrimidine-4-carboxamide], the half-inhibitory concentration (IC50) in the test on HAP1 MTAP-deleted was at least 10000 nM; on PRMT5 [1], 500 to 5000 nM; in the test with HAP1 MTAP-intact it was at least 10000 nM; at PRMT5 [2], 50 to 500 nM; on PRMT5 [3] (read-out: No Co-factor IC50), at least 5000 nM. The “MTAP Intact/Deleted Ratio” value in the test on HAP1 MTAP-deleted is “C* (an IC50 ratio of less than 3 fold between the IC50 in the HAP1 MTAP-intact cell line and the HAP1 MTAP-deleted cell line)”. The “SAM/MTA Ratio” value on PRMT5 [2] (setting [5]) is “A (a Ki ratio greater than or equal to 10 fold between the Ki in the presence of SAM and the Ki in the presence of MTA)”.
Consider `Cc1ncoc1COc1ccc2c(c1)CCN(C[C@@H](O)CNC(=O)c1cc(NC3CCC3)nc(N(C)C3CCC3)c1)C2` [Compound 635], for which the IC50 in the test with HAP1 MTAP-deleted is under 1000 nM; on PRMT5 [1], 50 to 500 nM; in the test with HAP1 MTAP-intact, 1000 to 10000 nM; at PRMT5 [2], 50 to 500 nM; on PRMT5 [3] (read-out: No Co-factor IC50), at least 5000 nM. Further, the “MTAP Intact/Deleted Ratio” value in the test with HAP1 MTAP-deleted is “A* (an IC50 ratio greater than or equal to 10 fold between the IC50 in the HAP1 MTAP-intact cell line and the HAP1 MTAP-deleted cell line)”. Moreover, at PRMT5 [2] (setting [5]), the “SAM/MTA Ratio” value was “A (a Ki ratio greater than or equal to 10 fold between the Ki in the presence of SAM and the Ki in the presence of MTA)”.
